Tests used:
[1] = Chromatographic hydrophobicity, logD of the compound at pH 7.4 by fast-gradient RP-HPLC method; format: physicochemical; details: buffer
[2] = Drug accumulation in human NCI-H292 cells at 3 to 10 uM incubated for 3 hrs by LC-MS analysis relative to azithromycin; format: ADME, cell-based; details: nci-h292, 3 h

`CC[C@H]1OC(=O)[C@H](C)[C@@H](O[C@H]2C[C@@](C)(OC)[C@@H](O)[C@H](C)O2)[C@H](C)[C@@H](O[C@@H]2O[C@H](C)C[C@H](N(C)C)[C@H]2O)[C@](C)(O)C[C@@H](C)CN(CCCNC(C)=O)[C@H](C)[C@@H](O)[C@]1(C)O` showed a chromatographic logD [1] of 2.06 and a Drug uptake [2] of 1%.
With `CC[C@H]1OC(=O)[C@H](C)[C@@H](O[C@H]2C[C@@](C)(OC)[C@@H](O)[C@H](C)O2)[C@H](C)[C@@H](O[C@@H]2O[C@H](C)C[C@H](N(C)CCCNC(C)=O)[C@H]2O)[C@](C)(OC)C[C@@H](C)C(=O)[C@H](C)[C@@H](O)[C@]1(C)O` the chromatographic logD [1] was 3.08 and the Drug uptake [2] was 27%.
In the case of `CC[C@H]1OC(=O)[C@H](C)[C@@H](O[C@H]2C[C@@](C)(OC)[C@@H](O)[C@H](C)O2)[C@H](C)[C@@H](O[C@@H]2O[C@H](C)C[C@H](N(C)C)[C@H]2O)[C@](C)(OC)C[C@@H](C)/C(=N\O)[C@H](C)[C@@H](O)[C@]1(C)OCCCNC(C)=O`, the chromatographic logD [1] was 2.94 and the Drug uptake [2] was 9%.
With `CC[C@H]1OC(=O)[C@H](C)[C@@H](OCCCNC(=O)COC)[C@H](C)[C@@H](O[C@@H]2O[C@H](C)C[C@H](N(C)C)[C@H]2O)[C@](C)(O)C[C@@H](C)CN(C)[C@H](C)[C@@H](O)[C@]1(C)O` the chromatographic logD [1] was 1.4 and the Drug uptake [2] was 14%.
`CC[C@H]1OC(=O)[C@H](C)[C@@H](O)[C@H](C)[C@@H](O[C@@H]2O[C@H](C)C[C@H](N(C)C)[C@H]2O)[C@](C)(O)C[C@@H](C)CN(C)[C@H](C)[C@@H](O)[C@]1(C)O` [DESCLADINOSYL AZITHROMYCIN] showed a chromatographic logD [1] of 1.35 and a Drug uptake [2] of 56%.
In the case of `CC[C@H]1OC(=O)[C@H](C)[C@@H](O[C@H]2C[C@@](C)(OC)[C@@H](O)[C@H](C)O2)[C@H](C)[C@@H](O[C@@H]2O[C@H](C)C[C@H](N(C)C)[C@H]2O)[C@](C)(O)C[C@@H](C)CN(CCCNC(=O)C2CCC2)[C@H](C)[C@@H](O)[C@]1(C)O`, the chromatographic logD [1] was 2.31 and the Drug uptake [2] was 0%.
Work on `CC[C@H]1OC(=O)[C@H](C)[C@@H](OCCCNC(=O)C2CCC2)[C@H](C)[C@@H](O[C@@H]2O[C@H](C)C[C@H](N(C)C)[C@H]2O)[C@](C)(O)C[C@@H](C)CN(C)[C@H](C)[C@@H](O)[C@]1(C)O` yielded a chromatographic logD [1] of 1.78 and a Drug uptake [2] of 21%.
In the case of `CCCCCCCC(=O)NCCCN1C[C@H](C)C[C@@](C)(O)[C@H](O[C@@H]2O[C@H](C)C[C@H](N(C)C)[C@H]2O)[C@@H](C)[C@H](O[C@H]2C[C@@](C)(OC)[C@@H](O)[C@H](C)O2)[C@@H](C)C(=O)O[C@H](CC)[C@@](C)(O)[C@H](O)[C@H]1C`, the chromatographic logD [1] was 3.74 and the Drug uptake [2] was 207%.
In the case of `CC[C@H]1OC(=O)[C@H](C)[C@@H](O[C@H]2C[C@@](C)(OC)[C@@H](OCCCNC(=O)c3c(C)nn(C)c3Cl)[C@H](C)O2)[C@H](C)[C@@H](O[C@@H]2O[C@H](C)C[C@H](N(C)C)[C@H]2O)[C@](C)(O)C[C@@H](C)CN(C)[C@H](C)[C@@H](O)[C@]1(C)O`, the chromatographic logD [1] was 2.52 and the Drug uptake [2] was 60%.
With `CCCCCCCC(=O)NCCCO[C@@H]1[C@@H](C)C(=O)[C@H](C)C[C@@](C)(OC)[C@H](O[C@@H]2O[C@H](C)C[C@H](N(C)C)[C@H]2O)[C@@H](C)[C@H](O[C@H]2C[C@@](C)(OC)[C@@H](O)[C@H](C)O2)[C@@H](C)C(=O)O[C@H](CC)[C@@]1(C)O` the chromatographic logD [1] was 5.07 and the Drug uptake [2] was 575%.
`CC[C@H]1OC(=O)[C@H](C)[C@@H](O[C@H]2C[C@@](C)(OC)[C@@H](O)[C@H](C)O2)[C@H](C)[C@@H](O[C@@H]2O[C@H](C)C[C@H](N(C)C)[C@H]2OCCCNC(=O)COC)[C@](C)(O)C[C@@H](C)CN(C)[C@H](C)[C@@H](O)[C@]1(C)O` gave a chromatographic logD [1] of 2.54 and a Drug uptake [2] of 22%.
`CC[C@H]1OC(=O)[C@H](C)[C@@H](O[C@H]2C[C@@](C)(OC)[C@@H](OCCCNC(=O)C3CCC3)[C@H](C)O2)[C@H](C)[C@@H](O[C@@H]2O[C@H](C)C[C@H](N(C)C)[C@H]2O)[C@](C)(O)C[C@@H](C)CN(C)[C@H](C)[C@@H](O)[C@]1(C)O` showed a chromatographic logD [1] of 2.62 and a Drug uptake [2] of 51%.
For `CCCCC(=O)NCCCN(C)[C@H]1C[C@@H](C)O[C@@H](O[C@@H]2[C@@H](C)[C@H](O[C@H]3C[C@@](C)(OC)[C@@H](O)[C@H](C)O3)[C@@H](C)C(=O)O[C@H](CC)[C@@](C)(O)[C@H](O)[C@@H](C)N(C)C[C@H](C)C[C@@]2(C)O)[C@@H]1O`, the chromatographic logD [1] was 3.08 and the Drug uptake [2] was 75%.
In the case of `CCCCCCCC(=O)NCCCO[C@H]1[C@H](C)O[C@@H](O[C@H]2[C@H](C)[C@@H](O[C@@H]3O[C@H](C)C[C@H](N(C)C)[C@H]3O)[C@](C)(O)C[C@@H](C)CN(C)[C@H](C)[C@@H](O)[C@](C)(O)[C@@H](CC)OC(=O)[C@@H]2C)C[C@@]1(C)OC`, the chromatographic logD [1] was 4.1 and the Drug uptake [2] was 357%.
`CCCCC(=O)NCCCN1C[C@H](C)C[C@@](C)(O)[C@H](O[C@@H]2O[C@H](C)C[C@H](N(C)C)[C@H]2O)[C@@H](C)[C@H](O[C@H]2C[C@@](C)(OC)[C@@H](O)[C@H](C)O2)[C@@H](C)C(=O)O[C@H](CC)[C@@](C)(O)[C@H](O)[C@H]1C` gave a chromatographic logD [1] of 2.72 and a Drug uptake [2] of 7%.
`CC[C@H]1OC(=O)[C@H](C)[C@@H](O[C@H]2C[C@@](C)(OC)[C@@H](O)[C@H](C)O2)[C@H](C)[C@@H](O[C@@H]2O[C@H](C)C[C@H](N(C)CCCNC(C)=O)[C@H]2O)[C@](C)(O)C[C@@H](C)CN(C)[C@H](C)[C@@H](O)[C@]1(C)O` gave a chromatographic logD [1] of 2.06 and a Drug uptake [2] of 5%.
`CC[C@H]1OC(=O)[C@H](C)[C@@H](O)[C@H](C)[C@@H](O[C@@H]2O[C@H](C)C[C@H](N(C)C)[C@H]2O)[C@](C)(OC)C[C@@H](C)/C(=N\O)[C@H](C)[C@@H](O)[C@]1(C)O` showed a chromatographic logD [1] of 2.31 and a Drug uptake [2] of 17%.
`CC[C@H]1OC(=O)[C@H](C)[C@@H](O[C@H]2C[C@@](C)(OC)[C@@H](O)[C@H](C)O2)[C@H](C)[C@@H](O[C@@H]2O[C@H](C)C[C@H](N(C)C)[C@H]2OCCCNC(=O)C2CCC2)[C@](C)(O)C[C@@H](C)CN(C)[C@H](C)[C@@H](O)[C@]1(C)O` gave a chromatographic logD [1] of 3.16 and a Drug uptake [2] of 124%.
`CC[C@H]1OC(=O)[C@H](C)[C@@H](O[C@H]2C[C@@](C)(OC)[C@@H](O)[C@H](C)O2)[C@H](C)[C@@H](O[C@@H]2O[C@H](C)C[C@H](N(C)C)[C@H]2O)[C@](C)(O)C[C@@H](C)CN(C)[C@H](C)[C@@H](OCCCNC(=O)COC)[C@]1(C)O` showed a chromatographic logD [1] of 2.58 and a Drug uptake [2] of 26%.
